The source made the active and inactive calls. Some results are limits rather than exact numbers.

In one test the test system is INS1. The test is described as follows: INS-1E survival protection against cytokine death – cell-based, luminescence, retest, dose response (AID 449756).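 Further: cell death triggered by IL-1 beta plus TNF-alpha plus IFN-gamma mixture; protective hits raise ATP signal compared with cytokine alone wells.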 Format: functional. The settings on record: Rattus norvegicus.
The next test has as its system HEK293. Briefly: SAR Analysis of small molecule inhibitors of T-cell specific antigen receptor-induced NF-kB activation in a HEK-293T cell line using a luminescence assay - Set 2. [Related pubchem assays (depositor defined):AID435003, AID435012, AID489026]. The settings on record: Homo sapiens. Format: functional, cell-based.
For test [1], the target named is ATP-dependent molecular chaperone HSP82 (Candida albicans (strain WO-1) (Yeast), UniProt C4YTQ8). The test is described as follows: steroid-induced GRE reporter decrease in yeast – S. cerevisiae, luminescence, Hsp90 inhibitor project, dose response (AID 2400).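 Further: beta-galactosidase luminescence from glucocorticoid response element reporter as proxy for Hsp90 function; inhibitor potency where signal loss means Hsp90 inhibition.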 Format: functional, cell-based.
The nature of test [2]: cells. Format: functional, cell-based.
The nature of test [3]: fluconazole-exposed Candida albicans growth modulators – fluorescence, retest, confirmation (AID 2467). Format: functional, cell-based.
Test [4] is described as follows: Luminescence-based dose response cell-based high throughput screening assay for cytotoxic compounds using the IEC-6 intestinal epithelial cell line. [Related pubchem assays: 1858 (Summary AID.), 1825 (Counterscreen.), 1907 (Confirmation screen.)]. Format: functional.
In the next test the test system is Jurkat. Briefly: SAR Analysis of small molecule inhibitors of T-cell specific antigen receptor-induced NF-kB activation in a Jurkat cell line using a luminescence assay - Set 2. [Related pubchem assays (depositor defined):AID435003, AID435012, AID465]. Format: functional, cell-based. Particulars: Homo sapiens.
The nature of test [5]: NIH-3T3 fibroblast cytotoxicity, dose response, cytotoxicity control, cell-based, fluorescence, Alamar Blue, secondary assay (AID 2327).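 Further: NIH-3T3 mouse fibroblasts cultured with fluconazole at 8 µg/mL.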 Format: functional.
Test [6] in a line: non-specific 3'UTR reporter inhibition in Clone20-Shn3RL – cell-based, Renilla luciferase, cherry-picked, counter-screen for Shn3 inhibitor project, dose response (AID 624133). Format: functional.
Test [7] is described as follows: cells. Format: functional, cell-based. This is another data set of the same source.
Test [8] is described as follows: DRD fibroblast viability loss – cell-based, non-viral oncogenic, luminescence, dose response (AID 1934). Format: functional. Particulars: Homo sapiens.
Test [9] is described as follows: HEK-293T viability loss after treatment – luminescence, T-cell screen hits, cytotoxicity control for TCR NF-kB inhibitor project, dose response (AID 489026).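 Further: cells exposed to compound about 14 hours before the viability readout.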 Format: functional, cell-based.
Test [10] can be described thus: Counterscreen for AddAB inhibitors: absorbance-based bacterial cell-based high throughput dose response assay for inhibitors of bacterial viability. [Related pubchem assays (depositor defined):AID435030, AID449728, AID449731, AID488942, AID488955, AID488956]. Format: functional.
For test [11], the target named is T1, Histone-lysine N-methyltransferase NSD2 (Homo sapiens, UniProt O96028).
T1 sequence (O96028 whole entry): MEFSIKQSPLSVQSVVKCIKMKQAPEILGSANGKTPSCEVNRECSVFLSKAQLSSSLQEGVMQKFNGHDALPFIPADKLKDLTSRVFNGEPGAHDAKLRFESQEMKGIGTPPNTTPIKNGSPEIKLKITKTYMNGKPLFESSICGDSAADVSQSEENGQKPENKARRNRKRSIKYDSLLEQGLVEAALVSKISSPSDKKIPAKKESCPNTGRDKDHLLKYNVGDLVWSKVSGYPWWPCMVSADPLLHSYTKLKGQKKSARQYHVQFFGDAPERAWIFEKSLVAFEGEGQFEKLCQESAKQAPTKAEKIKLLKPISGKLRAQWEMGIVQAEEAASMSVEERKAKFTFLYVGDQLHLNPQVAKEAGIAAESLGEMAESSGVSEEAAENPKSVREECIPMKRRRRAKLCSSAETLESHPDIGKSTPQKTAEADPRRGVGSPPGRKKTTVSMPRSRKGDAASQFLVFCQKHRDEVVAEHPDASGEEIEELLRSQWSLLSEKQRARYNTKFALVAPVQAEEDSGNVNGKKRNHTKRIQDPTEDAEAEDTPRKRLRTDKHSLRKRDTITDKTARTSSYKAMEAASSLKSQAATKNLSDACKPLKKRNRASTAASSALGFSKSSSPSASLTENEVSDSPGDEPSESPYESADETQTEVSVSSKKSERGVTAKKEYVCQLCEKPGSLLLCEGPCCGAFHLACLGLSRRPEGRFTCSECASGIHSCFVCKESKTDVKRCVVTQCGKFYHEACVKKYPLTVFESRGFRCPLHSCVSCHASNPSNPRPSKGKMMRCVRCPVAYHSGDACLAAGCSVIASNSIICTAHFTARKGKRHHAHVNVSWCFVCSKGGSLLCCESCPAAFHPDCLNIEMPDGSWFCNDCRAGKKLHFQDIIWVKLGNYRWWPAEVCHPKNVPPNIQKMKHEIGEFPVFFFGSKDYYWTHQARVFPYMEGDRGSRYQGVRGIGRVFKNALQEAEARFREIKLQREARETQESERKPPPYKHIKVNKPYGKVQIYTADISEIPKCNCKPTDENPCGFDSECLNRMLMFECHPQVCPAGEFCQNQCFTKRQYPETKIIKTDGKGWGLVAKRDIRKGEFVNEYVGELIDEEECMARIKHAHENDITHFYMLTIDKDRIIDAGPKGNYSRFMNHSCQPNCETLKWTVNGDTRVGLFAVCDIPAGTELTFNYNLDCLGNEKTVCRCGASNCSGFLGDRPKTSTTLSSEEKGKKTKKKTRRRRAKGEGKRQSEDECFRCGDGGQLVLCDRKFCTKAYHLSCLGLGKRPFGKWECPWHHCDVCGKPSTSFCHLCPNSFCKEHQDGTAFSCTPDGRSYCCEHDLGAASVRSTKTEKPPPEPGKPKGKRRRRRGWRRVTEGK
Format: biochemical.

The target of another test is Caspase-8 (Homo sapiens, UniProt Q14790). The test is described as follows: inhibitors of purified CASP8 protease – biochemical, Z-IETD-R110 fluorescence, cherry-picked samples, selectivity assay for caspase-6 inhibitor project, dose response (AID 743294).
The next test concerns the target T2, Caspase-3 (Homo sapiens, UniProt P42574).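 Further: Dose-response selectivity test against caspase-3 for candidate inhibitors of sentrin-specific proteases (SENPs).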
T2 sequence (P42574 whole entry): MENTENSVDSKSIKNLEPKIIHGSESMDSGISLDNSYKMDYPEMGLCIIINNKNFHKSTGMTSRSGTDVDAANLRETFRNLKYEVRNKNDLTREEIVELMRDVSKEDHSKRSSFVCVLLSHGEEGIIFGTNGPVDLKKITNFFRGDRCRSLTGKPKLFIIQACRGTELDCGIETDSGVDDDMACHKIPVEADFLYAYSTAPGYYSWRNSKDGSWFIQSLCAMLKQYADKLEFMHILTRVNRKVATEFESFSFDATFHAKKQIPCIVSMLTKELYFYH
Format: functional.

Another test concerns the target T3, Caspase-6 (Homo sapiens, UniProt P55212).
T3 sequence (P55212 whole entry): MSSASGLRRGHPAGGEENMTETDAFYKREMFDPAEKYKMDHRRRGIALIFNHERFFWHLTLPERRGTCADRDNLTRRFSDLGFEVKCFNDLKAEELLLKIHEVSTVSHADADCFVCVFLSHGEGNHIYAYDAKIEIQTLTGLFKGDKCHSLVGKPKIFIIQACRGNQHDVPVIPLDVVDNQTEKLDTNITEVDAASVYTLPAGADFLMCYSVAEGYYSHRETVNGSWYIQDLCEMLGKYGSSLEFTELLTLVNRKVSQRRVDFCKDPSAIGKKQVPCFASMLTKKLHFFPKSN
The test is described as follows: inhibition of CASP6 peptide cleavage – biochemical, VEID-R110 fluorescence, cherry-pick, dose response (AID 720632).

Sequence of ATP-dependent molecular chaperone HSP82 (C4YTQ8 whole entry): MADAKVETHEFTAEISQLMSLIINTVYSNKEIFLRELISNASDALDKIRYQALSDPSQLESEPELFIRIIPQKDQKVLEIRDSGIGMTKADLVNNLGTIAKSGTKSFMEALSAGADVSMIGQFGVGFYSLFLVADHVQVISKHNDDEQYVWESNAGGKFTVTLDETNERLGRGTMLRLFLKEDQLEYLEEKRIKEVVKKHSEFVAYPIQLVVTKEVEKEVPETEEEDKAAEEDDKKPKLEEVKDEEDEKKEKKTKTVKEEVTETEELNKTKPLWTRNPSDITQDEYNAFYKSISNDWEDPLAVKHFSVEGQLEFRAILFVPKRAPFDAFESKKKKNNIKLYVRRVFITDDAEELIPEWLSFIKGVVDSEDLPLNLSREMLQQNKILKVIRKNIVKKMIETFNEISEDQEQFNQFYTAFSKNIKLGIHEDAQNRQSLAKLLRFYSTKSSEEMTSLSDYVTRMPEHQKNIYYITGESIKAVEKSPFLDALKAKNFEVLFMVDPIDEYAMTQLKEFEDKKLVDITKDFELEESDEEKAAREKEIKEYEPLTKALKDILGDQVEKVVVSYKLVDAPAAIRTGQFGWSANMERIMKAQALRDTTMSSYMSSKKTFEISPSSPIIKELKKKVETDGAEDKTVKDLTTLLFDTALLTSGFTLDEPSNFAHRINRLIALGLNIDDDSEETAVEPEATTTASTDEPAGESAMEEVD
Sequence of Caspase-8 (Q14790 217-374 limits assumed): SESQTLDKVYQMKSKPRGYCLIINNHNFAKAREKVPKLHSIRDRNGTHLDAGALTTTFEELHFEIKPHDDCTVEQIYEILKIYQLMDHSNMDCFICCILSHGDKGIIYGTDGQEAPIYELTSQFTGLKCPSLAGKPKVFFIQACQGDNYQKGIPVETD
Sequence of Caspase-8 (Q14790 385-479 limits assumed): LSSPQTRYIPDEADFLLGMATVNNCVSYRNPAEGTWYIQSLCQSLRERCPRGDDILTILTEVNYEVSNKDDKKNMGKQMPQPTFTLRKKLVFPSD

Take `CCCCC(=O)NC(c1ccc(N(C)C)cc1)c1ccc2cccnc2c1O` (configuration not stated): the figures for the AC50 (in the test with INS1; in test [6]) were 0.626 µM (active) and > 70 µM (inactive), respectively. Besides, the IC50 in the test on HEK293 was 2.23 µM (active); in [4] it was 1.72 µM (active); in the test on Jurkat, 1.7 µM (active); in test [9], > 80 µM (inactive); in [10] it was > 119 µM (inactive). Moreover, the EC50 in test [1] was > 160 µM (inactive); in “cells [2]” it was > 350 µM (not active); in [3] it was 0.832 µM (active); in test [5] it was 28.4 µM (inconclusive); in “cells [7]”, 3.94 µM (active); in test [8] it was 2.51 µM (active).
As to `CN(CC(=O)Nc1ccccc1Cl)C(=O)COC(=O)c1ccc([N+](=O)[O-])s1`, the figures for the AC50 (in test [11]; at Caspase-8; at Caspase-6) were 8.27 µM (active), 23.8 µM (active) and 4.3 µM (active), respectively. The IC50 on Caspase-3 is 6.21 µM (active).

For the origin of these results see ChEMBL document CHEMBL1201862, “PubChem BioAssay data set” (2004).
